Laboratory results as given in PMC8159111 (Pathogens, 2021).
Where two headings read alike, the source gives them in different places.

Key:
[1] = Cytotoxicity (CC50) determination, crystal violet assay; type: cell-based; conditions: African green monkey, Vero E6 cells, Table 4 prints no unit, Figure 4 prints μM, read-out: CC50 (half-maximal cytotoxic concentration)
Protocol: To assess the half maximal cytotoxic concentration (CC50), stock solutions of the test compounds were prepared in 10% DMSO in ddH2O and diluted further to the working solutions with DMEM. The cytotoxic activity of the extracts was tested in VERO-E6 cells by using crystal violet assay as previously described with minor modifications. Briefly, the cells were seeded in 96-well plates (100 µL/well at a density of 3 × 10^5 cells/mL) and incubated for 24 h at 37 °C in a humidified 5% CO2 incubator. After 24 h, cells were treated with various concentrations of the tested compounds in triplicates. Seventy two hours later, the supernatant was discarded, and cell monolayers were fixed with 10% formaldehyde for 1 h at room temperature (RT). The fixed monolayers were then dried and stained with 50 µL of 0.1% crystal violet for 20 min on a bench rocker at RT. The monolayers were then washed, dried and the crystal violet dye in each well was then dissolved with 200 µL of methanol for 20 min on a bench rocker at RT. The absorbance of crystal violet solutions was measured at λmax 570 nm as a reference wavelength using a multi-well plate reader.

[2] = test system: SARS-CoV-2 "NRC-03-nhCoV" virus; assay: Inhibitory concentration 50 (IC50) determination, reduction of virus-induced cytopathic effect in Vero-E6 cells; type: cell-based; conditions: for Selectivity Index (CC50/IC50): CC50 on Vero E6 / IC50 against NRC-03-nhCoV; for IC50: Severe acute respiratory syndrome coronavirus 2, Vero C1008, 72 h, unit not given in Table 4 and Figure 6, Figure 4 and text print μM
Protocol: The IC50 values for the tested compounds were determined as previously described, with minor modifications. Briefly, in 96-well tissue culture plates, 2.4 × 10^4 Vero-E6 cells were distributed in each well and incubated overnight at a humidified 37°C incubator under 5% CO2 condition. The cell monolayers were then washed once with 1× PBS. An aliquot of the SARS-CoV-2 “NRC-03-nhCoV” virus containing 100 TCID50 was incubated with serial diluted compounds and kept at 37 °C for 1 h. The Vero-E6 cells were treated with virus/compound mix and co-incubated at 37 °C in a total volume of 200 µL per well. Untreated cells infected with virus represented the virus control; however, cells that were not treated and not infected were the cell control. Following incubation at 37 °C in 5% CO2 incubator for 72 h, the cells were fixed with 100 μL of 10% paraformaldehyde for 20 min and stained with 0.5% crystal violet in distilled water for 15 min at RT. The crystal violet dye was then dissolved using 100 μL of absolute methanol per well and the optical density of the color was measured at 570 nm using the Anthos Zenyth 200 rt plate reader (Anthos Labtec Instruments, Heerhugowaard, the Netherlands).

[3] = against NRC-03-nhCoV in Vero E6, 72 h, CPE reduction, crystal violet, read-out: IC50 (half-maximal inhibitory concentration)

With `CC1(C)CC[C@]2(C(=O)O)CC[C@]3(C)C(=CC[C@@H]4[C@@]5(C)CC[C@H](O)C(C)(C)[C@@H]5CC[C@]43C)[C@@H]2C1` [Compound 1, Oleanolic acid] the CC50 at 72 h [1] was 190 µM, the “Selectivity Index (CC50/IC50)” value [2] was 0.39 and the IC50 [2, 3] was 476 µM.
With `CC1(C)CC[C@]2(C(=O)O)CC[C@]3(C)C(=CC[C@@H]4[C@@]5(C)C[C@@H](O)[C@H](O)C(C)(C)[C@@H]5CC[C@]43C)[C@@H]2C1` [Compound 2, Maslinic acid] the CC50 at 72 h [1] was 97.3 µM, the “Selectivity Index (CC50/IC50)” value [2] was 0.97 and the IC50 [2, 3] was 99.9 µM.
For `C#CCOC(=O)[C@]12CCC(C)(C)CC1C1=CCC3[C@@]4(C)CC[C@H](O)C(C)(C)C4CC[C@@]3(C)[C@]1(C)CC2` (stereo partly drawn) [Compound 3, Propargyl-(3β)-3-hydroxyolean-12-en-28-oate], the CC50 at 72 h [1] was 97.4 µM, the “Selectivity Index (CC50/IC50)” value [2] was 2.32 and the IC50 [2, 3] was 42 µM.
For `C#CCOC(=O)[C@]12CCC(C)(C)CC1C1=CCC3[C@@]4(C)C[C@@H](O)[C@H](O)C(C)(C)C4CC[C@@]3(C)[C@]1(C)CC2` (stereo partly drawn) [Compound 4, Propargyl-(2α,3β)-2,3-dihydroxyolean-12-en-28-oate], the CC50 at 72 h [1] was 157 µM, the “Selectivity Index (CC50/IC50)” value [2] was 0.67 and the IC50 [2, 3] was 236 µM.
In the case of `C#CCOC(=O)C12CCC(C)(C)CC1C1=CCC3C4(C)CC(OCC#C)C(O)C(C)(C)C4CCC3(C)C1(C)CC2` (stereo not drawn) [Compound 5, Propargyl-(2α)-2-(propargyloxy)-(3β)-3-hydroxy-olean-12-en-28-oate], the CC50 at 72 h [1] is reported as 90.6 µM, the “Selectivity Index (CC50/IC50)” value [2] is reported as 1.06 and the IC50 [2, 3] is reported as 85.2 µM.
For `C#CCOC(=O)C12CCC(C)(C)CC1C1=CCC3C4(C)CC(O)C(OCC#C)C(C)(C)C4CCC3(C)C1(C)CC2` (stereo not drawn) [Compound 6, Propargyl-(3α)-3-(propargyloxy)-(2β)-2-hydroxy-olean-12-en-28-oate], the CC50 at 72 h [1] was 209 µM, the “Selectivity Index (CC50/IC50)” value [2] was 1.55 and the IC50 [2, 3] was 135 µM.
With `C#CCOC(=O)C12CCC(C)(C)CC1C1=CCC3C4(C)CC(OCC#C)C(OCC#C)C(C)(C)C4CCC3(C)C1(C)CC2` (stereo not drawn) [Compound 7, Propargyl-(2α,3β)-2,3-bis(propargyloxy)-olean-12-en-28-oate] the CC50 at 72 h [1] was 97.4 µM, the “Selectivity Index (CC50/IC50)” value [2] was 0.90 and the IC50 [2, 3] was 108 µM.
In the case of `Cc1cccc(-n2nncc2COC(=O)C23CCC(C)(C)CC2C2=CCC4C5(C)CCC(O)C(C)(C)C5CCC4(C)C2(C)CC3)c1` (stereo not drawn) [Compound 8, (1-(3-methylphenyl)-1H-1,2,3-triazol-5-yl)methyl-(3β)-3-hydroxyolean-12-en-28-oate], the CC50 at 72 h [1] is reported as 170 µM, the “Selectivity Index (CC50/IC50)” value [2] is reported as 0.98 and the IC50 [2, 3] is reported as 174 µM.
With `Cc1cccc(-n2cc(COC(=O)C34CCC(C)(C)CC3C3=CCC5C6(C)CCC(O)C(C)(C)C6CCC5(C)C3(C)CC4)nn2)c1` (stereo not drawn) [Compound 10, (1-(3-methylphenyl)-1H-1,2,3-triazol-4-yl)methyl-(3β)-3-hydroxyolean-12-en-28-oate] the CC50 at 72 h [1] was 277 µM, the “Selectivity Index (CC50/IC50)” value [2] was 3.68 and the IC50 [2, 3] was 75.3 µM.
In the case of `CC1(C)CCC2(C(=O)OCc3cn(-c4ccccc4)nn3)CCC3(C)C(=CCC4C5(C)CC(O)C(O)C(C)(C)C5CCC43C)C2C1` (stereo not drawn) [Compound 11, (1-Phenyl-1H-1,2,3-triazol-4-yl)methyl-(2α,3β)-2,3-dihydroxyolean-12-en-28-oate], the CC50 at 72 h [1] is reported as 218 µM, the “Selectivity Index (CC50/IC50)” value [2] is reported as 1.62 and the IC50 [2, 3] is reported as 135 µM.
With `CC1(C)CC[C@]2(C(=O)OCc3cn(-c4ccc(Cl)cc4)nn3)CC[C@]3(C)C(=CCC4[C@@]5(C)C[C@@H](OCc6cn(-c7ccc(Cl)cc7)nn6)[C@H](O)C(C)(C)C5CC[C@]43C)C2C1` (stereo partly drawn) [Compound 12, (1-(4-Chlorophenyl)-1H-1,2,3-triazol-4-yl)methyl-(2α,3β)-2-((1-(4-chlorophenyl)-1H-1,2,3-triazol-4-yl)methoxy)-3-hydroxyolean-12-en-28-oate] the CC50 at 72 h [1] was 514 µM and the “Selectivity Index (CC50/IC50)” value [2] was 4.42.
For `COc1ccc(-n2cc(COC(=O)[C@]34CCC(C)(C)CC3C3=CCC5[C@@]6(C)C[C@@H](O)[C@H](OCc7cn(-c8ccc(OC)cc8)nn7)C(C)(C)C6CC[C@@]5(C)[C@]3(C)CC4)nn2)cc1` (stereo partly drawn) [Compound 13, (1-(4-Methoxyphenyl)-1H-1,2,3-triazol-4-yl)methyl-(2α,3β)-2-hydroxy-3-((1-(4-methoxyphenyl)-1H-1,2,3-triazol-4-yl)methoxy)-olean-12-en-28-oate], the CC50 at 72 h [1] was 356 µM and the “Selectivity Index (CC50/IC50)” value [2] was 2.24.
In the case of `COc1ccc(-n2cc(COC(=O)[C@]34CCC(C)(C)CC3C3=CCC5[C@@]6(C)C[C@@H](OCc7cn(-c8ccc(OC)cc8)nn7)[C@H](OCc7cn(-c8ccc(OC)cc8)nn7)C(C)(C)C6CC[C@@]5(C)[C@]3(C)CC4)nn2)cc1` (stereo partly drawn) [Compound 14, (1-(4-Methoxyphenyl)-1H-1,2,3-triazol-4-yl)methyl-(2α,3β)-2,3-bis((1-(4-methoxyphenyl)-1H-1,2,3-triazol-4-yl)methoxy)-olean-12-en-28-oate], the CC50 at 72 h [1] is reported as 405 µM and the “Selectivity Index (CC50/IC50)” value [2] is reported as 2.96.
Compound `COc1ccc(-c2cc(COC(=O)C34CCC(C)(C)CC3C3=CCC5C6(C)CCC(O)C(C)(C)C6CCC5(C)C3(C)CC4)on2)cc1` (stereo not drawn) [Compound 15, (3-(4-methoxyphenyl)isoxazol-5-yl) methyl-(3β)-3-hydroxyolean-12-en-28-oate] has an IC50 [2, 3] of 523 µM.
With `COc1ccc(-c2cc(COC(=O)C34CCC(C)(C)CC3C3=CCC5C6(C)CC(O)C(O)C(C)(C)C6CCC5(C)C3(C)CC4)on2)cc1` (stereo not drawn) [Compound 16, (3-(4-methoxyphenyl)isoxazol-5-yl) methyl-(2α,3β)-2,3-dihydroxyolean-12-en-28-oate] the CC50 at 72 h [1] was 324 µM, the “Selectivity Index (CC50/IC50)” value [2] was 1.48 and the IC50 ([2]; read-out: IC50 (half-maximal inhibitory concentration), against NRC-03-nhCoV in Vero E6, 72 h, CPE reduction, crystal violet) was 219 µM.
